According to paper PMC8634379, “From the Design to the In Vivo Evaluation of Benzohomoadamantane-Derived Soluble Epoxide Hydrolase Inhibitors for the Treatment of Acute Pancreatitis” (Journal of Medicinal Chemistry, 2021):
Read-outs that look alike come from different tables or passages of the source.

Experiments:
[1] = test system: cerulein-induced acute pancreatitis; test: In vivo efficacy, cerulein-induced acute pancreatitis murine model; design: species or system C57BL/6 male mice
Excerpt: Forty-one male C57BL/6 mice (8-week-old; approximately 24 g) were supplied by Envigo (Barcelona, Spain) (Ref 16512). During the experimental procedure, the animals were identified with a permanent marker (tail code numbers). Upon arrival, the animals were housed in groups of 8–9 animals/cage in polysulfone maintenance cages (480 × 265 × 210 mm, with a surface area of 940 cm^2) with wire tops and wood chip bedding. The animals were kept in an environmentally controlled room (ventilation, temperature 22 ± 2 °C, and humidity 35–65%) on a 12 h light/dark cycle. They underwent a period of 7 days of acclimatization between the date of arrival and the start of the procedure. […] The maintenance diet was supplied by Harlan Interfauna Ibérica S.L. (2018 Harlan Teklad Global Diets). Diet was provided to the animals ad libitum, but they were fasted overnight before the first cerulein injection, and food was replaced after the last cerulein injection. Tap water was supplied by CASSA (Servei d’Aigües de Sabadell) ad libitum. The animals were maintained in accordance with the European Directive for the Protection of Vertebrate Animals Used for Experimental and other Scientific Purposes (86/609/EU). Decree 214/1997 of 30th July. Ministry of agriculture, livestock and fishing of the Autonomous Government of Catalonia, Spain. Royal Decree 53/2013 of 1st February (Spain). All the experimental procedures were approved by the Ethical Committee on human and animal experimentation (CEEAH) of Universitat Autònoma de Barcelona (UAB) (procedure number: 4107) and by the Animal Experimentation Commission of the Generalitat de Catalunya (Catalan Government) (DAAM: 10146). The test item was dissolved in vehicle 10% 2-hydroxypropyl-β-cyclodextrin (CAS 128446-35-5) Sigma-Aldrich (Ref 332607). The vehicle was prepared the day before and kept at 4 °C. Pancreatitis induction: Mice (n = 41) were weighed, identified by a distinct number at the base of the tail, and fasted overnight. Cerulein (cerulein and cerulein + 22 groups) (50 μg/kg, prepared in 0.9% NaCl) or vehicle (0.9% NaCl) (control group) were intraperitoneally injected (V = 5 mL/kg) 12 consecutive times, at 1 h intervals (h = 0–11). Food was replaced after the last injection. A satellite experiment was designed where animals (n = 3) were distributed in control, cerulein, and cerulein + 22-treated groups. Pancreatitis was induced by seven injections of cerulein (or vehicle in the control group) at 1 h intervals (h = 0–6). Treatments: the test item was administered intraperitoneally in one injection to 22_03 (0.3 mg/kg) and 22_01 (0.1 mg/kg) groups at 14 h after the first cerulein injection. Animals from the control and cerulein groups received vehicle administration (10% 2-hydroxypropyl-β-cyclodextrin) (V = 10 mL/kg). Extra groups were treated 2 h after the first cerulein injection: 22 (0.3 mg/kg), control, and cerulein groups (10% 2-hydroxypropyl-β-cyclodextrin). Study end: 24 h after the first cerulein injection, animals were weighed and anesthetized with isoflurane. Blood was collected from the vena cava in an Eppendorf containing K2-EDTA and centrifuged at 10,000 rpm for 5 min for plasma collection. Plasma was stored at −80 °C until analysis. The mice were sacrificed by cervical dislocation and the pancreases were dissected and weighed. Pancreases from three animals were frozen in liquid N2 and stored at −80 °C until analysis. Pancreases from five mice were sectioned and one part was placed in 10% formalin and sent to Anapath (Granada, Spain) for histology analysis and the other was immediately placed in RNAse-free eppendorfs, frozen in N2, and stored at −80 °C for gene expression assays.
Pancreatic samples were treated with increasing grade alcohols and two xylol baths and embedded in paraffin. They were subsequently cut using a microtome and processed for staining. […]

[2] = Concentrations in plasma and pancreatic tissue in the efficacy study; assay type: in vivo, C57BL/6 male mice; conditions: 10 h post-administration; for concentration at 10 h: male, C57BL/6, mouse, intraperitoneal
Excerpt: During the experimental procedure, the animals were identified with a permanent marker (tail code numbers). […] They underwent a period of 7 days of acclimatization between the date of arrival and the start of the procedure. […] Diet was provided to the animals ad libitum, but they were fasted overnight before the first cerulein injection, and food was replaced after the last cerulein injection. Tap water was supplied by CASSA (Servei d’Aigües de Sabadell) ad libitum. […] Ministry of agriculture, livestock and fishing of the Autonomous Government of Catalonia, Spain. […] The vehicle was prepared the day before and kept at 4 °C. Pancreatitis induction: Mice (n = 41) were weighed, identified by a distinct number at the base of the tail, and fasted overnight. Cerulein (cerulein and cerulein + 22 groups) (50 μg/kg, prepared in 0.9% NaCl) or vehicle (0.9% NaCl) (control group) were intraperitoneally injected (V = 5 mL/kg) 12 consecutive times, at 1 h intervals (h = 0–11). Food was replaced after the last injection. A satellite experiment was designed where animals (n = 3) were distributed in control, cerulein, and cerulein + 22-treated groups. Pancreatitis was induced by seven injections of cerulein (or vehicle in the control group) at 1 h intervals (h = 0–6). […] Animals from the control and cerulein groups received vehicle administration (10% 2-hydroxypropyl-β-cyclodextrin) (V = 10 mL/kg). Extra groups were treated 2 h after the first cerulein injection: 22 (0.3 mg/kg), control, and cerulein groups (10% 2-hydroxypropyl-β-cyclodextrin). […] Blood was collected from the vena cava in an Eppendorf containing K2-EDTA and centrifuged at 10,000 rpm for 5 min for plasma collection. Plasma was stored at −80 °C until analysis. The mice were sacrificed by cervical dislocation and the pancreases were dissected and weighed. Pancreases from three animals were frozen in liquid N2 and stored at −80 °C until analysis. Pancreases from five mice were sectioned and one part was placed in 10% formalin and sent to Anapath (Granada, Spain) for histology analysis and the other was immediately placed in RNAse-free eppendorfs, frozen in N2, and stored at −80 °C for gene expression assays.

[3] = Cerulein + 22 (0.3 mg/Kg), samples 1-5, score 0 (no changes) to 4 (very serious)

SMILES: O=C(NC12CC3CC(Cl)(CC(C1)c1ccccc13)C2)N[C@H]1CC[C@H](Oc2ccc(C(=O)O)cc2)CC1 [Compound 22, 4-[((1r,4r)-4-(3-(9-Chloro-5,6,8,9,10,11-hexahydro-7H-5,9:7,11-dimethanobenzo[9]annulen-7-yl)ureido)cyclohexyl)oxy]benzoic Acid]
- body weight change at the end of the study ([1]; 22 0.1 mg/kg IP single dose, did not reach statistical significance): increased body weight
- body weight change at the end of the study ([1]; 22 0.3 mg/kg IP single dose, p < 0.01 vs Cerulein group): increased body weight
- histologic score: Hemorrhage ([1]; Cerulein + 22 (0.1 mg/Kg), samples 1-5, score 0 (no changes) to 4 (very serious)): 0
- histologic score: Hemorrhage [1, 3]: 0
- histologic score: Mononuclear inflammatory cells [1, 3]: 0
- histologic score: Necrosis [1, 3]: 0
- histologic analysis of pancreas, effect on cerulein-induced damage ([1]; both doses (0.1 and 0.3 mg/kg)): ameliorated cerulein-induced effects
- histologic analysis of pancreas, effect on cerulein-induced damage ([1]; higher dose (0.3 mg/kg)): more efficiently reversed the pancreatic damage, edema, and neutrophil infiltration
- concentration in pancreatic tissues ([2]; 0.1 mg/kg IP): no amount of 22 was detected
- concentration at 10 h ([2]; pancreas, 0.3 mg/kg IP, read-out: concentration in pancreas): 29.9 ng/g
- concentration at 10 h ([2]; plasma, 0.1 mg/kg IP, read-out: plasma level): 14 nM
- concentration at 10 h ([2]; plasma, 0.3 mg/kg IP, read-out: plasma level): 175 nM
